According to US9102636B2, “Analgesic compounds, compositions, and uses thereof” (Galleon Pharmaceuticals, Inc., priority 2010, dated 2015):
“And” between values parts separate entries of the source, which are not always exact repeats. Equal entries are not always repeated. “Also recorded” adds a separate entry of the source.

What was measured:
[1] = tested on: Carrageenan-induced thermal hyperalgesia; test: Carrageenan-induced thermal hyperalgesia (Hargreaves); type: in vivo, rat; conditions: for Paw withdrawal latency: Pre-Cg, individual rats, FIG. 21A
Description: The effect of Compound 2 in the rat carrageenan model of acute inflammatory pain was evaluated. The intraplantar carrageenan model of acute inflammatory pain in the rat results in behaviors similar to that observed in patients and has been widely used to assess novel pharmacological treatments (Whiteside et al., 2005, J. Pharmacol. Exp. Ther. 314:1234-1240). The objective of this study was to evaluate the ability of Compound 2 to reverse or prevent development of thermal hyperalgesia and edema in the rat carrageenan model of acute inflammatory pain. The positive control was indomethacin (Sigma, St. Louis), and the negative control was vehicle (0.5% methyl cellulose). […] The Hargreaves apparatus was obtained from Ugo Basile, Italy, and the lamba-carrageenan was obtained from Sigma, St. Louis. For this assay, paw withdrawal latency to a thermal stimulus was assessed using a radiant heat source (Ugo Basile, Italy) aimed at the plantar surface of the left hind paw (Hargreaves test). […] Paw volume was measured by displacement of water and assuming a tissue density equal to that of water. Baseline latencies were taken prior to carrageenan administration and re-assessed 4 h later. Compound 2 or vehicle was administered (10 and 30 mg/kg, p.o.) 3 hrs after carrageenan (curative) and behavior assessed 1 hr later. […] Indomethacin (positive control, 30 mg/kg p.o.) was administered prior to carrageenan and behavior assessed 4 hrs post-carrageenan. […] After induction of anesthesia, the injection site was prepared in a sterile manner and 50 μl of a 2% Jamba-carrageenan was injected. After injection, animals were weighed and allowed to recover before being returned to their home cages. Statistical significance was determined on untransformed data using a two-way analysis of variance (Graphpad Prism, NC). Significant main effects were analyzed further by subsequent Bonferronni post-hoc test. The level of significance was set at p<0.05. Data are shown as mean±S.E.M. (with an asterisk to denote significance as compared to vehicle treated controls).

[2] = L-012 assay: inhibition of SIN-1 generated peroxynitrite induced luminescence/fluorescence of L-012; type: biochemical; conditions: 15 minute time point; average of three plates
Description: Luminol like compound “L-012” is a chemilumescent probe that is activated by the presence of a ROS and/or RNS such as peroxynitrite. In this assay L-012 was oxidized by the addition of 3-Morpholino-sydnonimine (“SIN-1”), a known peroxynitrite generator. The emitted fluorescence was directly proportional to the concentration of SIN-1. The compounds of the invention were then assessed for their ability to scavenge peroxynitrite by blocking the increase of peroxynitrite induced fluorescence. Concentrations of compound producing 50% inhibition of the fluorescence signal (IC50 values) were calculated by testing the compounds of the invention at various concentrations and averaging the IC50 of three plates.
The following solutions were added to white polystyrene, non-sterile 96-well plate (Costar #3912): 196 μL of 50 μM L-012; 2 μL of the test compound; and 24 μL of 500 mM SIN-1. Fresh stock of 50 μM L-012 in PBS pH 7.4 was made for each 96 well plate that was analyzed. The plates were read in a FlexStation3 (Molecular Devices) using the luminescent mode at 37° C. for 30 min, with a measurement every 30 seconds and an integration time of 100 msec.
Luminescence signal was recorded by the FlexStation3 kinetically at 37° C. for 30 minutes, with a measurement every 30 seconds and an integration time of 100 msec. The data in rows A and H were dropped from each plate to exclude the possibility of an ‘edge effect’. Thus, each test compound had 3 replicates per plate.

CC1(C)SC(Nc2ccccc2O)=N[C@@H]1C(=O)O [Compound 2, (R)-2-(2-hydroxyphenylamino)-thiazoline-5,5-dimethyl-4-carboxylic acid]
Paw withdrawal latency ([1]; compound 2 10 mg/kg group, 10 mg/kg): 19.8 s and 15.34 s and 22.07 s and 17.39 s and 31.03 s and 14.07 s
Paw withdrawal latency ([1]; compound 2 30 mg/kg group, 30 mg/kg): 23.87 s and 12.41 s and 16.08 s and 28.86 s and 18.1 s and 22.77 s and 17.58 s
carrageenan-induced thermal hyperalgesia, curative (finding in words) ([1]; rat, 10 and 30 mg/kg p.o. 3 hours post-carrageenan): without significantly reversing thermal hyperalgesia; also recorded: did not significantly reverse thermal hyperalgesia
IC50 [2]: 130 nM
